Measurements from ChEMBL document CHEMBL1201862, “PubChem BioAssay data set” (2004).
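Assay format: 96-well plates, 48-hour exposure. At the GI50, growth is halved.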 Active and inactive are the calls of the source. Rule as the data show it: active = GI50 up to about 1.1 µM and inactive = higher.

Tests used:
Test in all cases: growth of human tumour cells (NCI), 48 h
[1] = test system: A498
[2] = test system: A549
[3] = test system: CCRF-CEM
[4] = test system: EKVX
[5] = test system: IGROV-1
[6] = test system: K562
[7] = test system: KM12
[8] = test system: M14
[9] = test system: MOLT-4
[10] = test system: Malme-3M
[11] = test system: NCI-H460
[12] = test system: SN12C
[13] = test system: SR
[14] = test system: U-251
[15] = test system: UACC-62
[16] = test system: UO-31
[17] = test system: HOP-92
[18] = test system: LOX IMVI

Row | Compound | GI50 [1] | GI50 [2] | GI50 [3] | GI50 [4] | GI50 [5] | GI50 [6] | GI50 [7] | GI50 [8] | GI50 [9] | GI50 [10] | GI50 [11] | GI50 [12] | GI50 [13] | GI50 [14] | GI50 [15] | GI50 [16] | GI50 [17] | GI50 [18]
1 | COC(=O)C(=O)C(C(=O)C(=O)Nc1ccccc1C(N)=O)c1nc2ccc(C(=O)c3ccccc3)cc2nc1O (configuration not stated) | 45 µM (inactive) | > 100 µM (inactive) | > 100 µM (inactive) | > 100 µM (inactive) | > 100 µM (inactive) | 42.6 µM (inactive) | 67.3 µM (inactive) | > 100 µM (inactive) | 92.5 µM (inactive) | > 100 µM (inactive) | > 100 µM (inactive) | > 100 µM (inactive) | 68.1 µM (inactive) | > 100 µM (inactive) | 27.6 µM (inactive) | 58.6 µM (inactive) |  | 
2 | O=C(O)[C@H](NS(=O)(=O)c1ccc([N+](=O)[O-])cc1)c1ccccc1 |  | > 100 µM (inactive) | > 100 µM (inactive) | > 100 µM (inactive) | > 100 µM (inactive) | > 100 µM (inactive) | > 100 µM (inactive) | > 100 µM (inactive) | > 100 µM (inactive) | > 100 µM (inactive) | > 100 µM (inactive) | > 100 µM (inactive) |  | > 100 µM (inactive) | > 100 µM (inactive) | > 100 µM (inactive) | > 100 µM (inactive) | > 100 µM (inactive)
3 | [O-][N+]1=C(c2ccccc2)COc2ccccc21 | > 100 µM (inactive) | > 100 µM (inactive) | 85.1 µM (inactive) |  | > 100 µM (inactive) | > 100 µM (inactive) | > 100 µM (inactive) | > 100 µM (inactive) | > 100 µM (inactive) | > 100 µM (inactive) | > 100 µM (inactive) | > 100 µM (inactive) | 47.5 µM (inactive) | > 100 µM (inactive) | > 100 µM (inactive) | > 100 µM (inactive) | > 100 µM (inactive) | 96.4 µM (inactive)
4 | COc1cc(C(Cc2ccccc2)NC(C)=O)oc(=O)c1 (configuration not stated) | > 100 µM (inactive) | > 100 µM (inactive) | > 100 µM (inactive) | > 100 µM (inactive) | > 100 µM (inactive) | > 100 µM (inactive) | > 100 µM (inactive) | > 100 µM (inactive) |  | > 100 µM (inactive) | > 100 µM (inactive) | > 100 µM (inactive) |  | > 100 µM (inactive) | > 100 µM (inactive) | > 100 µM (inactive) | > 100 µM (inactive) | > 100 µM (inactive)
5 | COc1cc2c(cc1O)CCN[C@@]21CS[C@H]2c3c(OC(C)=O)c(C)c4c(c3C(COC1=O)N1C2C2NC(Cc3cc(C)c(OC)c(O)c32)[C@@H]1C#N)OCO4 (some centres not stated) | < 0.01 µM (active) | < 0.01 µM (active) | < 0.01 µM (active) | < 0.01 µM (active) | < 0.01 µM (active) | < 0.01 µM (active) |  | < 0.01 µM (active) | < 0.01 µM (active) | < 0.01 µM (active) | < 0.01 µM (active) | < 0.01 µM (active) | < 0.01 µM (active) | < 0.01 µM (active) | < 0.01 µM (active) | < 0.01 µM (active) |  | < 0.01 µM (active)
6 | O=C1C(c2ccc([N+](=O)[O-])cc2)=[N+]([O-])c2ccc([N+](=O)[O-])cc21 |  | 37.8 µM (inactive) | 24.2 µM (inactive) | > 100 µM (inactive) | 26.4 µM (inactive) | 27.7 µM (inactive) | 74 µM (inactive) | 96.2 µM (inactive) | 27 µM (inactive) |  | > 100 µM (inactive) |  | 35.1 µM (inactive) | 49.9 µM (inactive) | 21 µM (inactive) | 48.9 µM (inactive) |  | 46.5 µM (inactive)
7 | CNC1=C(C)C(=O)C(C)=C(C(C)(C)CC(=O)n2cc(F)c(=O)[nH]c2=O)C1=O | > 23.9 µM (inactive) | 5.09 µM (inactive) | > 65.3 µM (inactive) | 16.1 µM (inactive) | 67 µM (inactive) | 32 µM (inactive) | 14.5 µM (inactive) | 48.1 µM (inactive) | 26.7 µM (inactive) | > 43.1 µM (inactive) | 2.99 µM (inactive) | 8.67 µM (inactive) |  | > 75.9 µM (inactive) | 45.4 µM (inactive) | 24.3 µM (inactive) | > 100 µM (inactive) | 71 µM (inactive)
8 | O=C1COc2cc3c(cc2N1)SCC(=O)N3 |  | > 100 µM (inactive) | > 100 µM (inactive) | 6.41 µM (inactive) | > 100 µM (inactive) | > 100 µM (inactive) | > 100 µM (inactive) | > 100 µM (inactive) | > 100 µM (inactive) | > 100 µM (inactive) |  |  | > 100 µM (inactive) |  | > 100 µM (inactive) | > 100 µM (inactive) | > 100 µM (inactive) | 
9 | COc1ccc(C2C(C(=O)O)=C(COC(C)=O)Oc3cc4c(cc32)OCO4)c(OC)c1 (configuration not stated) |  | > 100 µM (inactive) | > 100 µM (inactive) | > 100 µM (inactive) | > 100 µM (inactive) | > 100 µM (inactive) |  | > 100 µM (inactive) | > 100 µM (inactive) | > 100 µM (inactive) | > 100 µM (inactive) | > 100 µM (inactive) |  | > 100 µM (inactive) | > 100 µM (inactive) | > 100 µM (inactive) | 90.6 µM (inactive) | > 100 µM (inactive)
10 | Nc1ccc(C(=O)CC2(O)C(=O)Nc3c(Cl)cc(Cl)cc32)cc1 (configuration not stated) | > 100 µM (inactive) | > 100 µM (inactive) | 16.4 µM (inactive) | > 100 µM (inactive) |  | 40.1 µM (inactive) | 83 µM (inactive) | > 100 µM (inactive) | 46.8 µM (inactive) | > 100 µM (inactive) | > 100 µM (inactive) | > 100 µM (inactive) |  | 27.2 µM (inactive) |  | > 100 µM (inactive) | > 100 µM (inactive) | 34.5 µM (inactive)
11 | COc1cccc2c1c1ccc3c(c1n2C)C(=O)C=CC3=O | > 100 µM (inactive) | > 100 µM (inactive) | 0.615 µM (active) |  | 25.5 µM (inactive) | 3.61 µM (inactive) | 78 µM (inactive) | 14.6 µM (inactive) | 2.64 µM (inactive) | 13.9 µM (inactive) | 48.4 µM (inactive) | 20.3 µM (inactive) | 2.4 µM (inactive) | 48.5 µM (inactive) | 17.1 µM (inactive) | 18.6 µM (inactive) | 13.1 µM (inactive) | 16.9 µM (inactive)
12 | C/N=C(\N)c1ccc(NC(=N)c2ccc(C(=N)Nc3ccc(/C(N)=N/C)cc3)cc2)cc1 |  | > 100 µM (inactive) | > 100 µM (inactive) |  | > 100 µM (inactive) | > 100 µM (inactive) | > 100 µM (inactive) | > 100 µM (inactive) | > 100 µM (inactive) | > 100 µM (inactive) | > 100 µM (inactive) | > 100 µM (inactive) |  | > 100 µM (inactive) | > 100 µM (inactive) | > 100 µM (inactive) | 76 µM (inactive) | > 100 µM (inactive)
13 | COc1ccc([Se][Se]c2ccc(OC)cc2OC)c(OC)c1 | 18.2 µM (inactive) | 8.89 µM (inactive) | 2.08 µM (inactive) |  | 3.25 µM (inactive) | 2.88 µM (inactive) | 3.52 µM (inactive) | 2.92 µM (inactive) | 3.07 µM (inactive) | 4.54 µM (inactive) | 4.29 µM (inactive) | 2 µM (inactive) |  |  | 1.93 µM (inactive) | 2.4 µM (inactive) | 2.35 µM (inactive) | 2 µM (inactive)
